From patent US7906655B2, “Hepatitis C virus inhibitors” (Bristol-Myers Squibb Company, priority 2008, dated 2011)

system: HCV 1b genotype; assay: HCV Replicon assay (HCV-neo replicon cells, wild-type); format: cell-based; conditions: HCV 1b genotype replicon; class symbols
Description: An HCV Replicon assay was utilized in the present disclosure, and was prepared, conducted and validated as described in commonly owned PCT/US2006/022197 and in O'Boyle et. al. Antimicrob Agents Chemother. 2005 April; 49 (4):1346-53. Assay methods incorporating luciferase reporters have also been used as described (Apath.com).
HCV-neo replicon cells and replicon cells containing mutations in the NS5A region were used to test the currently described family of compounds. The compounds were determined to have more than 10-fold less inhibitory activity on cells containing mutations than wild-type cells. Thus, the compounds of the present disclosure can be effective in inhibiting the function of the HCV NS5A protein and are understood to be as effective in combinations as previously described in application PCT/US2006/022197 and commonly owned WO/O4014852. Further, the compounds of the present disclosure can be effective against the HCV 1b genotype. It should also be understood that the compounds of the present disclosure can inhibit multiple genotypes of HCV. […] In one embodiment, compounds of the present disclosure are inhibitory versus 1a, 1b, 2a, 2b, 3a, 4a, and 5a genotypes.

| SMILES | EC50 |
| --- | --- |
| CCC(=O)N1CCC[C@H]1c1nc2cc(C#Cc3ccc4[nH]c([C@@H]5CCCN5C(=O)CC)nc4c3)ccc2[nH]1 [Example M2] | 4.57 to 99 nM |
| O=C(Cc1ccccn1)N1CCC[C@H]1c1nc2cc(C#Cc3ccc4[nH]c([C@@H]5CCCN5C(=O)Cc5ccccn5)nc4c3)ccc2[nH]1 [Example M7, 5,5′-(1,2-ethynediyl)bis(2-((2S)-1-(2-pyridinylacetyl)-2-pyrrolidinyl)-1H-benzimidazole)] | < 4.57 nM |
| C[C@@](O)(C(=O)N1CCC[C@H]1c1nc2cc(C#Cc3ccc4[nH]c([C@@H]5CCCN5C(=O)[C@@](C)(O)c5ccccc5)nc4c3)ccc2[nH]1)c1ccccc1 [Example M16] | < 4.57 nM |

same assay, conditions: Hepatitis C virus, HCV 1b genotype replicon; class symbols

| SMILES | EC50 |
| --- | --- |
| CC(=O)N1CCC[C@H]1c1nc2c(-c3ncc(-c4ccc5[nH]c([C@@H]6CCCN6C(=O)[C@@H](c6ccccc6)N(C)C)nc5c4)o3)cccc2[nH]1 [Example J27, (1R)-2-((2S)-2-(5-(2-(2-((2S)-1-acetyl-2-pyrrolidinyl)-1H-benzimidazol-4-yl)-1,3-oxazol-5-yl)-1H-benzimidazol-2-yl)-1-pyrrolidinyl)-N,N-dimethyl-2-oxo-1-phenyl-ethanamine] | < 4.57 nM |
| CN(C)CC(=O)N1CCC[C@H]1c1nc2c(-c3ncc(-c4ccc5[nH]c([C@@H]6CCCN6C(=O)[C@@H](c6ccccc6)N(C)C)nc5c4)o3)cccc2[nH]1 [Example J28, (1R)-2-((2S)-2-(5-(2-(2-((2S)-1-((dimethyl-amino)acetyl)-2-pyrrolidinyl)-1H-benzimidazol-4-yl)-1,3-oxazol-5-yl)-1H-benzimidazol-2-yl)-1-pyrrolidinyl)-N,N-dimethyl-2-oxo-1-phenyl-ethanamine] | < 4.57 nM |
| COC(=O)N[C@@H](C(=O)N1CCC[C@H]1c1nc2cc(-c3cnc(-c4cccc5[nH]c([C@@H]6CCCN6C(=O)[C@@H](c6ccccc6)N6CCN(C)CC6)nc45)o3)ccc2[nH]1)c1ccccc1 [Example J29, methyl ((1R)-2-(((2S)-2-(5-(2-(2-((2S)-1-((2R)-2-(4-methyl-1-piperazinyl)-2-phenylacetyl)-2-pyrrolidinyl)-1H-benzimidazol-4-yl)-1,3-oxazol-5-yl)-1H-benzimidazol-2-yl)-1-pyrrolidinyl)-2-oxo-1-phenylethyl) carbamate] | < 4.57 nM |
| CN(C)[C@@H](C(=O)N1CCC[C@H]1c1nc2ccc(C(=O)c3ccc4nc([C@@H]5CCCN5C(=O)[C@@H](c5ccccc5)N(C)C)[nH]c4c3)cc2[nH]1)c1ccccc1 [Example J32, bis(2-((2S)-1-((2R)-2-(dimethylamino)-2-phenylacetyl)-2-pyrrolidinyl)-1H-benzimidazol-5-yl)methanone] | 4.57 to 99 nM |
| COC(=O)N[C@@H](C(=O)N1CCC[C@H]1c1nc2ccc(C(=O)c3ccc4nc([C@@H]5CCCN5C(=O)[C@H](NC(=O)OC)c5ccccc5)[nH]c4c3)cc2[nH]1)c1ccccc1 [Example J33] | < 4.57 nM |
| C[C@@H](C(=O)N1CCC[C@H]1c1nc2cc(C#Cc3ccc4[nH]c([C@@H]5CCCN5C(=O)[C@H](C)c5ccccc5)nc4c3)ccc2[nH]1)c1ccccc1 [Example M1, 5,5′-(1,2-ethynediyl)bis(2-((2S)-1-((2R)-2-phenylpropanoyl)-2-pyrrolidinyl)-1H-benzimidazole)] | < 4.57 nM |
| CC(C)C(=O)N1CCC[C@H]1c1nc2cc(C#Cc3ccc4[nH]c([C@@H]5CCCN5C(=O)C(C)C)nc4c3)ccc2[nH]1 [Example M3, 5,5′-(1,2-ethynediyl)bis(2-((2S)-1-isobutyryl-2-pyrrolidinyl)-1H-benzimidazole)] | 4.57 to 99 nM |
| O=C(C1CC1)N1CCC[C@H]1c1nc2cc(C#Cc3ccc4nc([C@@H]5CCCN5C(=O)C5CC5)[nH]c4c3)ccc2[nH]1 [Example M4, 2-((2S)-1-(cyclopropylcarbonyl)-2-pyrrolidinyl)-5-((2-((2S)-1-(cyclopropylcarbonyl)-2-pyrrolidinyl)-1H-benzimidazol-6-yl)ethynyl)-1H-benzimidazole] | 4.57 to 99 nM |
| O=C(c1ccccc1)N1CCC[C@H]1c1nc2cc(C#Cc3ccc4nc([C@@H]5CCCN5C(=O)c5ccccc5)[nH]c4c3)ccc2[nH]1 [Example M6, 2-((2S)-1-benzoyl-2-pyrrolidinyl)-5-((2-((2S)-1-benzoyl-2-pyrrolidinyl)-1H-benzimidazol-6-yl)ethynyl)-1H-benzimidazole] | 4.57 to 99 nM |
| O=C(CC1CC1)N1CCC[C@H]1c1nc2cc(C#Cc3ccc4nc([C@@H]5CCCN5C(=O)CC5CC5)[nH]c4c3)ccc2[nH]1 [Example M8, 2-((2S)-1-(cyclopropylacetyl)-2-pyrrolidinyl)-5-((2-((2S)-1-(cyclopropylacetyl)-2-pyrrolidinyl)-1H-benzimidazol-6-yl)ethynyl)-1H-benzimidazole] | 4.57 to 99 nM |
| O=C(C1CCC1)N1CCC[C@H]1c1nc2cc(C#Cc3ccc4nc([C@@H]5CCCN5C(=O)C5CCC5)[nH]c4c3)ccc2[nH]1 [Example M9, 2-((2S)-1-(cyclobutylcarbonyl)-2-pyrrolidinyl)-5-((2-((2S)-1-(cyclobutylcarbonyl)-2-pyrrolidinyl)-1H-benzimidazol-6-yl)ethynyl)-1H-benzimidazole] | 4.57 to 99 nM |
| O=C(Cc1cccnc1)N1CCC[C@H]1c1nc2cc(C#Cc3ccc4[nH]c([C@@H]5CCCN5C(=O)Cc5cccnc5)nc4c3)ccc2[nH]1 [Example M11, 5,5′-(1,2-ethynediyl)bis(2-((2S)-1-(3-pyridinylacetyl)-2-pyrrolidinyl)-1H-benzimidazole)] | < 4.57 nM |
| Cn1cccc1C(=O)N1CCC[C@H]1c1nc2cc(C#Cc3ccc4[nH]c([C@@H]5CCCN5C(=O)c5cccn5C)nc4c3)ccc2[nH]1 [Example M12, 5,5′-(1,2-ethynediyl)bis(2-((2S)-1-((1-methyl-1H-pyrrol-2-yl)carbonyl)-2-pyrrolidinyl)-1H-benzimidazole)] | 4.57 to 99 nM |
| O=C(c1ccoc1)N1CCC[C@H]1c1nc2cc(C#Cc3ccc4[nH]c([C@@H]5CCCN5C(=O)c5ccoc5)nc4c3)ccc2[nH]1 [Example M13, 5,5′-(1,2-ethynediyl)bis(2-((2S)-1-(3-furoyl)-2-pyrrolidinyl)-1H-benzimidazole)] | < 4.57 nM |
| O=C(C1CCOC1)N1CCC[C@H]1c1nc2cc(C#Cc3ccc4[nH]c([C@@H]5CCCN5C(=O)C5CCOC5)nc4c3)ccc2[nH]1 (stereo partly drawn) [Example M14, 5,5′-(1,2-ethynediyl)bis(2-((2S)-1-(tetrahydro-3-furanylcarbonyl)-2-pyrrolidinyl)-1H-benzimidazole)] | 4.57 to 99 nM |
| O=C([C@H](O)c1ccccc1)N1CCC[C@H]1c1nc2cc(C#Cc3ccc4[nH]c([C@@H]5CCCN5C(=O)[C@H](O)c5ccccc5)nc4c3)ccc2[nH]1 [Example M15, (1R,1′R)-2,2′-(1,2-ethynediylbis(1H-benzimidazole-5,2-diyl(2S)-2,1-pyrrolidinediyl))bis(2-oxo-1-phenylethanol)] | < 4.57 nM |
| COc1cccc2c(C(=O)N3CCC[C@H]3c3nc4cc(C#Cc5ccc6nc([C@@H]7CCCN7C(=O)c7nc(Cl)cc8c(OC)cccc78)[nH]c6c5)ccc4[nH]3)nc(Cl)cc12 [Example M18, 3-chloro-1-(((2S)-2-(5-((2-((2S)-1-((3-chloro-5-methoxy-1-isoquinolinyl)carbonyl)-2-pyrrolidinyl)-1H-benzimidazol-6-yl)ethynyl)-1H-benzimidazol-2-yl)-1-pyrrolidinyl)carbonyl)-5-methoxyisoquinoline] | 100 to 999 nM |

same assay, conditions: Hepatitis C virus, HCV 1b genotype replicon; numeric values

| SMILES | EC50 |
| --- | --- |
| C[C@H](NC(=O)[C@@H](c1ccccc1)N(C)C)c1nc2c(-c3ncc(-c4ccc5[nH]c([C@@H]6CCCN6C(=O)[C@@H](c6ccccc6)N(C)C)nc5c4)o3)cccc2[nH]1 [Example J26, (2R)-2-(dimethyl-amino)-N-((1S)-1-(4-(5-(2-((2S)-1-((2R)-2-(dimethyl-amino)-2-phenylacetyl)-2-pyrrolidinyl)-1H-benzimidazol-5-yl)-1,3-oxazol-2-yl)-1H-benzimidazol-2-yl)ethyl)-2-phenyl-acetamide] | 0.021 nM |
| COC(=O)N[C@@H](C(=O)N1CCC[C@H]1c1nc2c(-c3ncc(-c4ccc5[nH]c([C@@H]6CCCN6C(=O)[C@@H](c6ccccc6)N6CCN(C)CC6)nc5c4)o3)cccc2[nH]1)c1ccccc1 [Example J30, methyl ((1R)-2-((2S)-2-(4-(5-(2-((2S)-1-((2R)-2-(4-methyl-1-piperazinyl)-2-phenylacetyl)-2-pyrrolidinyl)-1H-benzimidazol-5-yl)-1,3-oxazol-2-yl)-1H-benzimidazol-2-yl)-1-pyrrolidinyl)-2-oxo-1-phenylethyl) carbamate] | 0.058 nM |
| O=C([C@H]1CCCO1)N1CCC[C@H]1c1nc2cc(C#Cc3ccc4[nH]c([C@@H]5CCCN5C(=O)[C@H]5CCCO5)nc4c3)ccc2[nH]1 [Example M5, 5,5′-(1,2-ethynediyl)bis(2-((2S)-1-((2R)-tetrahydro-2-furanylcarbonyl)-2-pyrrolidinyl)-1H-benzimidazole)] | 10 nM |
| O=C(c1cccs1)N1CCC[C@H]1c1nc2cc(C#Cc3ccc4[nH]c([C@@H]5CCCN5C(=O)c5cccs5)nc4c3)ccc2[nH]1 [Example M10, 5,5′-(1,2-ethynediyl)bis(2-((2S)-1-(2-thienylcarbonyl)-2-pyrrolidinyl)-1H-benzimidazole)] | 10 nM |
| COc1ccc2ccc(C(=O)N3CCC[C@H]3c3nc4cc(C#Cc5ccc6[nH]c([C@@H]7CCCN7C(=O)c7ccc8ccc(OC)cc8n7)nc6c5)ccc4[nH]3)nc2c1 [Example M17, 2,2′-(1,2-ethynediylbis(1H-benzimidazole-5,2-diyl(2S)-2,1-pyrrolidinediylcarbonyl))bis(7-methoxyquinoline)] | 20 nM |
